Measurements taken from ChEMBL document CHEMBL1129515, “Synthesis and biological evaluation of1',2'-seconucleo-5'- phosphonates” (1996).

Legend:
[1] = test system: Yellow fever virus; test: Inhibitory activity of compound against Yellow fever virus (YF) was evaluated in vitro; Inactive; type: functional
[2] = test system: Vesicular stomatitis virus; test: Inhibitory activity of compound against Vesicular stomatitis virus (VSV) was evaluated in vitro; Inactive; type: functional
[3] = test system: unidentified adenovirus; test: Inhibitory activity of compound against Adenovirus type 2 (AD2) was evaluated in vitro; Inactive; type: functional
[4] = test system: Pichinde virus; test: Inhibitory activity of compound against pichinde virus (PIC) was evaluated in vitro; Inactive; type: functional
[5] = test system: Venezuelan equine encephalitis virus; test: Inhibitory activity of compound against Venezuelan equine encephalomyelitis virus (VEE) was evaluated in vitro; Inactive; type: functional
[6] = test system: Sandfly fever Sicilian virus; test: (§1) Inhibitory activity of compound against […] was evaluated in vitro; Inactive; type: functional
[7] = test system: Rift Valley fever virus; test: as §1; type: functional
[8] = test system: Human immunodeficiency virus; test: Inhibitory activity of compound against human immunodeficiency virus (HIV) was evaluated in vitro; Inactive; type: functional, Human immunodeficiency virus 1
[9] = test system: Japanese encephalitis virus; test: Inhibitory activity of compound against japanese encephalitis virus (JBE) was evaluated in vitro; Inactive; type: functional
[10] = test system: Punta Toro virus; test: Inhibitory activity of compound against punto toro virus (PT) was evaluated in vitro; Inactive; type: functional

Measured: Dose

CC(O)C(CP(=O)(O)O)OCn1ccc(=O)[nH]c1=O (stereo not given)
320 µg/mL: all assays above

CCOP(=O)(C[C@H](O)[C@H](C)OCc1ccccc1)OCC
320 µg/mL: all assays above

CCOP(=O)(O)CC(OCn1cc(C)c(=O)[nH]c1=O)C(C)O (stereo not given)
320 µg/mL: all assays above

Cc1cn(COC(CP(=O)(O)O)C(C)O)c(=O)[nH]c1=O (stereo not given)
320 µg/mL: all assays above

CCOP(=O)(O)CC(OCn1ccc(=O)[nH]c1=O)C(C)O (stereo not given)
320 µg/mL: all assays above

CC(O)C(CP(=O)(O)O)OCn1ccc(N)nc1=O (stereo not given)
320 µg/mL: all assays above

CCOP(=O)(C[C@H](O)[C@H](COCc1ccccc1)OCc1ccccc1)OCC
320 µg/mL: all assays above

Cc1cn(COC(CP(=O)(O)O)C(O)CO)c(=O)[nH]c1=O (stereo not given)
320 µg/mL: all assays above

Cc1cn(COC2CP(=O)(Oc3ccccc3)OC2C)c(=O)[nH]c1=O (stereo not given)
320 µg/mL: all assays above
